Measured values published in US7632930B2, “Oligosaccharide derivative” (Sankyo Company Limited, priority 2003, dated 2009).

Assays:
[1] = molecular target: T1, human pancreatic α-amylase (HPA) (Homo sapiens, UniProt P04746); experiment: α-Amylase inhibitory action (blue starch, Neo-Amylase Test); assay type: biochemical; details: final concentration required to inhibit the activity of the HPA solution by 50%; 37° C.
T1 construct: purchased International Reagents Caribzyme AMY
T1 sequence (P04746 16-511): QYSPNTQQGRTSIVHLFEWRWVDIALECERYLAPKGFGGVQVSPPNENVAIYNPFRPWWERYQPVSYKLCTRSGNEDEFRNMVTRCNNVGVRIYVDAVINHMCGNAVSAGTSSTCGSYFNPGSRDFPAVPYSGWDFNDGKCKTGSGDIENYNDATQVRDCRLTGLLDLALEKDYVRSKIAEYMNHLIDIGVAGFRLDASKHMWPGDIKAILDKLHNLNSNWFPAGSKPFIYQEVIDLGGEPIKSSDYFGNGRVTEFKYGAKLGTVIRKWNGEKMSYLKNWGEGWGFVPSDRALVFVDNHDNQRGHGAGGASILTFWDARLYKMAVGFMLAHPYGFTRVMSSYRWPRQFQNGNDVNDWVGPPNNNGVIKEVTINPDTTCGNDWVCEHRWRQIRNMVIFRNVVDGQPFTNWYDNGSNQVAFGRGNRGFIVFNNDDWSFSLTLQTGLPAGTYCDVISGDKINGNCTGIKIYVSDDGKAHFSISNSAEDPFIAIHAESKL
Protocol: “Caribzyme AMY” (International Reagents) was used for the human pancreatic α-amylase (HPA). Purified water was added to the commercially available HPA and dissolved to a concentration of 200 IU/l to prepare an α-amylase solution. The activity of the α-amylase was measured using a commercially available α-amylase assay reagent (“Neo-Amylase Test Daiichi”, Daiichi Pure Chemicals).
Each test compound was prepared with distilled water to a final concentration of 0.1 to 30 μg/ml, respectively.
After incubating for 10 minutes at 37° C., a blue starch tablet (“Neo-Amylase Test Daiichi”, Daiichi Pure Chemicals) was added followed by stirring for about 10 seconds with a mixer and heating for 30 minutes at 37° C. […] In addition, distilled water was added instead of α-amylase for use as a blank. […] Inhibition rate(%)=[1−{(Absorbance of control)−(absorbance of blank)}/{(absorbance when inhibitor added)−(absorbance of blank)}]×100

normal mice (ddY mice) = experiment: Postprandial hyperglycemia inhibitory action (cornstarch loading); assay type: in vivo; details: ddY mice fasted 20 hours; oral 0.3 mg (test compound)/2 g (cornstarch)/kg; AUC of increase in blood glucose levels, 0.5-3 hours after dosing, vs control group
Protocol: Commercially available normal mice (ddY mice, males, age 8 weeks at the time of testing, supplied by Japan SLC).
(§1) (2) Experimental Methods and Results
For the dose group, a test compound and commercially available cornstarch were mixed well with 0.5% carboxymethyl cellulose to prepare a suspension that was orally administered at 0.3 mg (test compound)/2 g (cornstarch)/kg (body weight) to five mice that had been fasted in advance for 20 hours. The control group was administered with a similar suspension in the same manner with the exception of not containing the test compound.
Blood glucose levels were measured using a blood glucose analyzer (Glucoloader GXT, A & T). Inhibition rate(%)=[1−(dose group AUC/control group blood glucose increase AUC)]×100

[2] = system: genetically obese diabetic mice (C57BL/KsJ-db/db mice); experiment: Blood glucose lowering action in genetically obese diabetic mice; assay type: in vivo; details: 0.005% (w/w) in diet, freely ingested for 1 week, vs control group
Source text: Commercially available, genetically obese diabetic mice (C57BL/KsJ-db/db mice, males, age 16 weeks at the time of testing, supplied by Clea Japan).
as §1
A test compound was mixed into a refined laboratory animal diet (carbohydrate content: 65.95% (w/w), Oriental Yeast) to a test compound concentration of 0.005% (w/w) and allowed to be freely ingested by diabetic mice for 1 week in groups of 5 mice per group. A control group was allowed similar unrestricted access to the same feed with the exception of not containing the test compound.
Blood glucose levels were measured before the start of dosing and one week after the start of dosing. Blood samples were collected from a tail vein and blood glucose levels were measured using a blood glucose analyzer (Glucoloader GXT, A & T) to calculate the blood glucose lowering rate (%) according to the following formula. Blood glucose lowering rate(%)=[1−(compound dose group blood glucose level/control group blood glucose level)]×100

Row | SMILES | IC50 [1] | Inhibition Rate (normal mice (ddY mice)) | Blood Glucose Lowering Rate [2]
1 | C[C@H]1O[C@H](O[C@H]2[C@H](O)[C@@H](O)[C@@H](O[C@H]3[C@H](O)[C@@H](O)[C@H](N)[C@@H]3CO)O[C@@H]2CO)[C@H](O)[C@@H](O)[C@@H]1O [Example 14, (1R,2S,3R,4R,5R)-1-Amino-2,3-dihydroxy-5-hydroxymethyl-cyclopent-4-yl 4-O-(6-deoxy-α-D-glucopyranosyl)-α-D-glucopyranoside] | 2120 nM | – | –
2 | C[C@H]1O[C@H](O[C@H]2[C@H](O)[C@@H](O)[C@@H](O[C@H]3[C@H](O)CN[C@@H]3CO)O[C@@H]2CO)[C@H](O)[C@@H](O)[C@@H]1O [Example 1, (2R,3R,4R)-4-Hydroxy-2-(hydroxymethyl)pyrrolidin-3-yl 4-O-(6-deoxy-α-D-glucopyranosyl)-α-D-glucopyranoside] | 1590 nM | – | –
3 | COC[C@H]1O[C@@H](O[C@H]2[C@H](O)[C@@H](O)[C@@H](O[C@H]3[C@H](O)CN[C@@H]3CO)O[C@@H]2CO)[C@H](O)[C@@H](O)[C@@H]1O [Example 8, (2R,3R,4R)-4-Hydroxy-2-hydroxymethyl-pyrrolidin-3-yl 4-O-(6-methoxy-6-deoxy-β-D-glucopyranosyl)-D-glucopyranoside] | 848 nM | – | –
4 | C[C@H]1O[C@H](O[C@H]2[C@H](O)[C@@H](O)[C@H](O[C@H]3[C@H](O)CN[C@@H]3CO)O[C@@H]2CO)[C@H](O)[C@@H](O)[C@@H]1O [Example 13, (2R,3R,4R)-4-Hydroxy-2-hydroxymethyl-pyrrolidin-3-yl 4-O-(6-deoxy-α-D-glucopyranosyl)-β-D-glucopyranoside] | 9060 nM | – | –
5 | C[C@H]1O[C@@H](O[C@H]2[C@H](O)[C@@H](O)[C@@H](O[C@H]3[C@H](O)[C@@H](CO)N[C@@H]3CO)O[C@@H]2CO)[C@H](O)[C@@H](O)[C@@H]1O [Example 7, (2R,3R,4R,5R)-2,5-Dihydroxymethyl-4-hydroxypyrrolidin-3-yl 4-O-(6-deoxy-β-D-glucopyranosyl)-α-D-glucopyranoside] | 8480 nM | – | –
6 | C[C@H]1O[C@@H](O[C@H]2[C@H](O)[C@@H](O)[C@@H](O[C@H]3[C@H](O)[C@@H](O)[C@H](N)[C@@H]3CO)O[C@@H]2CO)[C@H](O)[C@@H](O)[C@@H]1O [Example 15, (1R,2S,3R,4R,5R)-1-Amino-2,3-dihydroxy-5-hydroxymethyl-cyclopent-4-yl 4-O-(6-deoxy-β-D-glucopyranosyl)-α-D-glucopyranoside] | 1270 nM | – | –
7 | C[C@H]1O[C@@H](O[C@H]2[C@H](O)[C@@H](O)[C@@H](O[C@H]3[C@H](O)CN[C@@H]3CO)O[C@@H]2CO)[C@H](O)[C@@H](O)[C@@H]1O [Example 2, (2R,3R,4R)-4-Hydroxy-2-(hydroxymethyl)pyrrolidin-3-yl 4-O-(6-deoxy-β-D-glucopyranosyl)-α-D-glucopyranoside] | 453 nM | 64% | 47%
